Measured values taken from patent US9249345B2, “Concentrate for medical solutions, production thereof and use thereof in dialysis” (FRESENIUS MEDICAL CARE DEUTSCHLAND GMBH, priority 2010, dated 2016).

Key:
Type in all cases: physicochemical
[1] = Caking behaviour of concentrates in containers stored in climate chamber, Examples 2-4; settings: Example 4; 40° C., 75% relative humidity, 6 months
Text: The container comprised of film material without appreciable gas-barrier properties is depicted on the left of FIG. 1. […] The container shown on the right of FIG. 1 comprised the same materials. Additionally, said film comprised a gas-barrier layer of silicon oxide. The gas permeability of said film was below 20 cm^3/(m^2·d·bar) for CO2, as measured in accordance with DIN 53380—part 4. […] 1.
The stability of a concentrate comprised of components according to the invention versus conventional components was tested. […] It was assumed that the crystal water of the glucose in conjunction with sodium chloride caused caking.

[2] = Water uptake into concentrate container without gas barrier, Example 6; settings: 40° C., 75% relative humidity; for water uptake into the concentrate container (water content in percent by weight): after about 26 weeks; for water uptake: period of 6 months
Method: The water uptake into a concentrate container without a gas barrier, comprising MgCl2×6H2O or alkaline magnesium carbonate, 4MgCO3×Mg(OH)2×5H2O respectively, was compared. The concentrate containers were each exposed in the climate chamber to 40° C. and 75% relative humidity for several weeks. […] The time in weeks is plotted on the abscissa. The water content in percent by weight is plotted on the ordinate.

[3] = Storage of MgCl2×6H2O in gas-permeable concentrate container in climate chamber, Example 5; settings: 40° C., 75% relative humidity, 6 months
Method: MgCl2×6H2O was stored in the climate chamber at 40° C. and 75% relative humidity in a gas-permeable concentrate container.

Row | Compound | caking [1] | water uptake into the concentrate container (water content in percent by weight) [2] | water uptake [2] | physical state after storage [3]
1 | OC[C@H]1OC(O)[C@H](O)[C@@H](O)[C@@H]1O (stereo partly drawn) [anhydrous glucose] | does not promote caking | – | – | –
2 | alkaline magnesium carbonate, 4MgCO3×Mg(OH)2×5H2O | – | no water uptake | did not absorb any water | –
3 | O.O.O.O.O.O.[Cl-].[Cl-].[Mg+2] [MgCl2×6H2O, magnesium chloride with crystal water, MgCl2×6H2O] | – | ~24% | significant water uptake | liquefied
